Several values for one entry are separate records, joined by “and”; a condition that tells them apart may be missing. Equal values may be shown once.
Tested on: 922993-354-T-J3-PDC complex spheroids, viability, % test/control
Assay: Anticancer human tumor 922993-354-T-J3-PDC patient-derived endometrial carcinoma cell line growth inhibition [CLK]
Details: for viability, T/C: stronger effect = lower value
Excerpt: A high-throughput screen of multi-cell type tumor spheroids was designed to identify active combinations of […] and targeted small molecules. Complex spheroids include a stromal component modeled by human endothelial cells (HUVEC) and fibroblasts modeled by human mesenchymal stem cells (MSCs). The concentration ranges selected for each drug and investigational agent were based upon clinically achievable concentrations if the clinical Cmax of the agent was known.
Compounds. The drugs and investigational agents: cirtuvivint (SM08502; NSC835563), CC-671 (NSC850746), vemurafenib (NSC761431), tapotoclax (NSC804041), sotorasib (NSC818433), adagrasib (NSC831453), MRTX-1133 (NSC836407), BAY2416964 (NSC825713), copanlisib (NSC816437), inavolisib (NSC800729), abemaciclib (NSC768073), osimertinib (NSC779217), entinostat (NSC756642), eltanexor (KPT-8602, NSC794443), venetoclax (NSC766270), ceralasertib (NSC777638), bortezomib (NSC756655), olaparib (NSC753686), talazoparib (NSC767125), alisertib (NSC759677), peposertib (NSC802822), gemcitabine (NSC613327), 5-fluorouracil (NSC19893), SN-38 (NSC673596), oxaliplatin (NSC266046), paclitaxel (NSC125973), and doxorubicin (NSC123127), were obtained from the National Cancer Institute (NCI) Developmental Therapeutics Program Chemical Repository. The FDA-approved anticancer drug set is available from the Developmental Therapeutics Program at https://dtp.cancer.gov/organization/dscb/obtaining/available plates.htm. […] The stock solutions were prepared in dimethyl sulfoxide (DMSO, Sigma-Aldrich, St. Louis, MO, cat. D2650), except for the platinum complexes which were prepared in saline (Quality Biological, Gaithersburg, MD, cat. 114-055-101), at 800-fold the tested concentration and stored at -70 degrees C prior to their use. All drugs and investigational agents were tested over a range starting from a high concentration at or near the clinical Cmax and decreasing in half-log increments. If the clinical Cmax for an agent had not been determined, the highest concentration tested was 10 microM.
Cell Culture. All cells were maintained in an incubator at 37 degrees C and 5% CO2 with 95% humidity. The PDC lines were cultured according to standard operating procedures established by the NCI PDMR. Briefly, all PDCs were thawed and cultured in Matrigel-coated flasks prepared with a working solution of 1X Ham's F-12 nutrient mix, without supplementation (Invitrogen, Waltham, MA, cat. 11765054), 100 U/mL penicillin-streptomycin (Invitrogen, cat. 15140122), and 2.5% Matrigel (Corning Inc., Corning, NY, cat. 354248) for the first three passages. The 947758-054-R-J2-PDC line was cultured in 6B/Colon 1A media, which includes advanced DMEM/F-12 (Thermo Fisher Scientific, cat. 12634028), 10 mM HEPES (Thermo Fisher Scientific, cat. 15630080), 1X GlutaMAX supplement (Thermo Fisher Scientific, cat. 35050061), 0.1 mg/mL primocin (InvivoGen, cat. ant-pm-2), 10% defined fetal bovine serum, heat inactivated (HyClone Laboratories Inc., cat. SH30070.03HI), 1.25 mM N-Acetyl-L-cysteine (Sigma-Aldrich, cat. A9165), 10 mM nicotinamide (Sigma-Aldrich, cat. N0636), 1X B-27 supplement (Thermo Fisher Scientific, cat. 17504044), 1X N-2 supplement (Thermo Fisher Scientific, cat. 17502048), and 10 microM Y-27632 dihydrochloride (Tocris Bioscience, cat. 1254). The 876862-298-R-J1-PDC was cultured in 6E media, which includes all 6B/Colon 1A media components plus 50% L-WRN conditioned media (ATCC, cat. CRL-3276), 50 ng/mL recombinant human EGF recombinant protein (hEGF; Thermo Fisher Scientific, cat. PHG0311), 10 ng/mL recombinant human fibroblast growth factor 10 (hGFG-10; PeproTech, cat. 100-26), 1 ng/mL recombinant human fibroblast growth factor 2 (hFGF-2; PeproTech, cat. 100-18B), and 1 µM prostaglandin E2 (PGE2; Tocris, cat. 2296). The 227483-062-R1-J1-PDC line was cultured in Panc media, containing all 6E components except hFGF-2, with the addition of 500 nM SB-431542 (Selleckchem, cat. S1067) and 10 nM gastrin (Tocris, cat. 3006). […]
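Note: spheroids exposed to the agents for 7 days before readout.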

Structure (SMILES) | IC50 (curve of compound) | viability, T/C (compound 0.0316 µM) | viability, T/C (compound 0.1 µM) | viability, T/C (compound 0.316 µM) | viability, T/C (compound 1 µM) | viability, T/C (compound 3.16 µM) | viability, T/C (compound 10 µM) | other results
C#Cc1c(F)ccc2cc(O)cc(-c3ncc4c(N5CC6CCC(C5)N6)nc(OCC56CCCN5CC(F)C6)nc4c3F)c12 (stereo not drawn) | > 10 µM | 99.4% and 98.9% | 82% and 83% | 95.2% and 109% | 93% and 94% | 98.1% and 104% | 95.9% and 101% | 
C=C(F)C(=O)N1CCN(c2nc(OCC3CCCN3C)nc3c2CCN(c2cccc4cccc(Cl)c24)C3)CC1CC#N (stereo not drawn) | 4.9 µM and 4.28 µM | 96.9% and 91.5% | 97.8% and 100% | 93.3% and 104% | 91.2% and 92% | 79.4% and 67.9% | 2.9% and 0.21% | 
C=CC(=O)N1CCN(c2nc(=O)n(-c3c(C)ccnc3C(C)C)c3nc(-c4c(O)cccc4F)c(F)cc23)C(C)C1 (stereo not drawn) | > 10 µM | 101% and 104% | 94.5% and 105% | 104% and 92% | 105% and 99.2% | 92.5% and 111% | 93% and 93.6% | 
CC(Nc1ccc2c(c1)OCCn1cc(N3C(=O)OCC3C(F)F)nc1-2)C(N)=O (stereo not drawn) | 1.79 µM and 3.33 µM | 115% and 99.3% | 107% and 93.8% | 84.6% and 77.5% | 73.1% and 70.7% | 28.4% and 49% | 22.1% and 34.3% | 
CC1COCCN1c1cc(C2(S(C)(=N)=O)CC2)nc(-c2ccnc3[nH]ccc23)n1 (stereo not drawn) | > 10 µM | 101% and 91.8% | 118% and 86.8% | 130% and 91.7% | 90.4% and 102% | 108% and 94.2% | 68.6% and 78.2% | 
CCN1CCN(Cc2ccc(Nc3ncc(F)c(-c4cc(F)c5nc(C)n(C(C)C)c5c4)n3)nc2)CC1 | > 1 µM | 94.2% and 84.1% | 99.8% and 93.6% | 72% and 73.3% | 59.6% and 50.1% |  |  | viability, T/C (compound 0.00316 µM): 94.4% and 96.9%; viability, T/C (compound 0.01 µM): 91.2% and 85.8%
CCc1c2c(nc3ccc(O)cc13)-c1cc3c(c(=O)n1C2)COC(=O)[C@]3(O)CC | 0.00743 µM and 0.0161 µM | 12.8% and 21.2% | 13.1% and 16% | 17% and 25.4% | 22% and 27.1% |  |  | viability, T/C (compound 0.00316 µM): 84.6% and 97.6%; viability, T/C (compound 0.01 µM): 38% and 69.2%
CNC(=O)c1ccc(Nc2nc(OC3CCCC3)c3c(-c4ccc5nc(C)oc5c4)c[nH]c3n2)c(OC)c1 |  | 106% [middle of 12 runs] | 107% [middle of 12 runs] |  | 39.3% [middle of 12 runs] | 34.4% [middle of 12 runs] | 33.4% [middle of 12 runs] | IC50 (compound alone, run of 09/19/2023): 557 nM [middle of 12 runs]
COC1C=CCC(C)C(C)S(=O)(=O)NC(=O)c2ccc3c(c2)N(CC2CCC21)CC1(CCCc2cc(Cl)ccc21)CO3 (stereo not drawn) | 4.57 µM and 5.82 µM | 99.2% and 106% | 99.9% and 97.5% | 103% and 106% | 84.5% and 89.9% | 68.4% and 84% | 13.7% and 21.5% | 
COc1c(OCCCN2CCOCC2)ccc2c3n(c(=NC(=O)c4cnc(N)nc4)nc12)CCN3 | 0.118 µM and 0.226 µM | 75.1% and 91.2% | 54.6% and 68.8% | 30.3% and 40.4% | 9.62% and 15.9% |  |  | viability, T/C (compound 0.00316 µM): 109% and 111%; viability, T/C (compound 0.01 µM): 89.1% and 90.3%
Cn1ncnc1[C@H]1c2n[nH]c(=O)c3cc(F)cc(c23)N[C@@H]1c1ccc(F)cc1 | > 0.1 µM | 104% and 98.2% | 75.3% and 72.6% |  |  |  |  | viability, T/C (compound 0.000316 µM): 94.9% and 97.8%; viability, T/C (compound 0.001 µM): 80.7% and 87.4%; viability, T/C (compound 0.00316 µM): 104% and 100%; viability, T/C (compound 0.01 µM): 124% and 103%
NC(=O)C(=Cn1cnc(-c2cc(C(F)(F)F)cc(C(F)(F)F)c2)n1)c1cncnc1 | 0.187 µM and 1.17 µM |  |  |  |  |  |  | viability, T/C (compound 0.00949 µM): 99% and 121%; viability, T/C (compound 0.03 µM): 107% and 106%; viability, T/C (compound 0.0949 µM): 64.8% and 96.1%; viability, T/C (compound 0.3 µM): 47.6% and 68.7%; viability, T/C (compound 0.949 µM): 46.4% and 56.8%; viability, T/C (compound 3 µM): 24.8% and 32.5%
Nc1ccn(C2OC(CO)C(O)C2(F)F)c(=O)n1 (stereo not drawn) | < 0.0316 µM | 15.9% and 15.4% | 17.1% and 18.3% | 15.5% and 15.6% | 15.6% and 16.5% | 15.1% and 13.7% | 13.5% and 14.2% | 
O=c1[nH]cc(F)c(=O)[nH]1 | 2.51 µM and 5.11 µM | 102% and 101% | 95.8% and 97.9% | 86.8% and 93.4% | 104% and 115% | 38% and 60.7% | 26.7% and 35.1% | 

More lines, main results first:

IC50 (curve of compound) | Structure (SMILES) | viability, T/C (compound 0.0316 µM) | viability, T/C (compound 0.1 µM) | viability, T/C (compound 0.316 µM) | viability, T/C (compound 1 µM) | viability, T/C (compound 3.16 µM) | viability, T/C (compound 10 µM) | other results
> 0.3 µM | C=CC(=O)Nc1cc(Nc2nccc(-c3cn(C)c4ccccc34)n2)c(OC)cc1N(C)CCN(C)C |  |  |  |  |  |  | viability, T/C (compound 0.000949 µM): 93.6% and 122%; viability, T/C (compound 0.003 µM): 92.5% and 98.6%; viability, T/C (compound 0.00949 µM): 60.9% and 98.1%; viability, T/C (compound 0.03 µM): 97.8% and 85.3%; viability, T/C (compound 0.0949 µM): 90.1% and 94.2%; viability, T/C (compound 0.3 µM): 72.3% and 86.4%
3.86 µM and 6.98 µM | CC(=O)O[C@H]1C(=O)[C@@]2(C)[C@H]([C@H](OC(=O)c3ccccc3)[C@]3(O)C[C@H](OC(=O)[C@H](O)[C@@H](NC(=O)c4ccccc4)c4ccccc4)C(C)=C1C3(C)C)[C@]1(OC(C)=O)CO[C@@H]1C[C@@H]2O | 105% and 92.5% | 79% and 115% | 84% and 85.9% | 95.6% and 88.3% | 52.7% and 71.6% | 37.1% and 40.2% | 
0.00631 µM and 0.00744 µM | CC(C)CC(NC(=O)C(Cc1ccccc1)NC(=O)c1cnccn1)B(O)O (stereo not drawn) |  |  |  |  |  |  | viability, T/C (compound 0.000949 µM): 91.1% and 99.8%; viability, T/C (compound 0.003 µM): 85.1% and 72.4%; viability, T/C (compound 0.00949 µM): 30.7% and 48.4%; viability, T/C (compound 0.03 µM): 2.06% and 11.1%; viability, T/C (compound 0.0949 µM): 0.41% and 2.23%; viability, T/C (compound 0.3 µM): 0.17% and 0.49%
> 10 µM | CC(CO)NC(=O)c1cc(-c2ccc(Cl)cc2)nn(-c2cnn(C)c2)c1=O (stereo not drawn) | 107% and 97.1% | 106% and 87.2% | 98% and 86% | 97.1% and 81.7% | 102% and 95.1% | 74.8% and 64.1% | 
7.31 µM and > 10 µM | CC1(C)CCC(CN2CCN(c3ccc(C(=O)NS(=O)(=O)c4ccc(NCC5CCOCC5)c([N+](=O)[O-])c4)c(Oc4cnc5[nH]ccc5c4)c3)CC2)=C(c2ccc(Cl)cc2)C1 | 96.7% and 84.1% | 90.2% and 99.4% | 110% and 101% | 123% and 95.5% | 85.6% and 121% | 36.7% and 82.9% | 
> 10 µM | CCCS(=O)(=O)Nc1ccc(F)c(C(=O)c2c[nH]c3ncc(-c4ccc(Cl)cc4)cc23)c1F | 113% and 92.8% | 79.7% and 76.8% | 97.7% and 113% | 111% and 94.1% | 65.2% and 95.7% | 59% and 65.5% | 
> 10 µM | Nc1ccccc1NC(=O)c1ccc(CNC(=O)OCc2cccnc2)cc1 | 105% and 111% | 71.8% and 85.9% | 95.8% and 95.2% | 71.8% and 81.7% | 64.9% and 70.1% | 53.4% and 55.2% | 
> 10 µM | O=C(c1cc(Cc2n[nH]c(=O)c3ccccc23)ccc1F)N1CCN(C(=O)C2CC2)CC1 | 81.9% and 98.5% | 91.4% and 88.5% | 85.5% and 102% | 93% and 118% | 96.8% and 107% | 83.2% and 100% | 

Reference: PubChem BioAssay AID2060606 (Molecular Pharmacology Branch, DTP, NCI, 2025)
